{"source": "patent US12509460B2", "about": "(Skyhawk Therapeutics, Inc., priority 2019, dated 2025)", "key": {"[1]": {"tested_on": "mHTT protein in GM04724 (CAG 70/20) Huntington's disease patient lymphoblast cells", "test": "mHTT protein assay, 2B7-MW1 assay via Mesoscale Discovery (MSD)", "format": "cell-based, human", "method_in_brief": "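Signal from the 2B7-MW1 antibody pair on MSD, rising with polyQ length and smaller HTT fragments, measured mHTT after 48 h compound exposure (0.6 nM–10 μM) in GM04724 cells. A parallel replicate plate gave CellTiter Glo viability.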"}, "[2]": {"tested_on": "SMN FL and SMN Δ7 in spinal muscular atrophy (SMA) patient fibroblasts (GM03813, Coriell)", "test": "Quantitative splicing assay (SMN), qPCR", "format": "cell-based, human", "settings": "read-out: SMN2 Splicing FL EC50", "experimental": "Spinal muscular atrophy (SMA) patient fibroblasts (GM03813, Coriell) are plated in 96-well plates at 50,000 cells/well. […] Treated cells are lysed and cDNA synthesized using the Fast Advanced Cells-to-Ct kit (Thermofisher A35378) according to the manufacturer's instructions. 2 μL of each cDNA are used in qPCR reactions. […] Reactions are run in a Quant Studio 6 qPCR instrument with default settings."}, "[3]": {"tested_on": "SMN protein in spinal muscular atrophy (SMA) patient fibroblasts (GM03813, Coriell)", "test": "SMN protein assay, Mesoscale Discovery (MSD)", "format": "cell-based, human", "settings": "read-out: SMN2 protein EC50", "method_in_brief": "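Absolute SMN levels were quantified by MSD against an SMN protein standard curve (1 μg/ml to 19.5 pg/ml) run on each plate. Samples were lysates of GM03813 patient fibroblasts (7000 cells/well) treated 48 hours with compound doses from 2.5 μM down to 0.6 nM.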"}, "[4]": {"tested_on": "MDR1 (P-gp)", "test": "Blood-brain-barrier (BBB) penetration potential via MDCK-MDR1 permeability assay", "settings": "dog; for Papp A→B at 120 min, 5 μM: MDCK-MDR1, pH 7.4, MDCK-MDR1: Papp A-B; for Papp B→A at 120 min, 5 μM: MDCK-MDR1, pH 7.4, MDCK-MDR1: Papp B-A"}, "[5]": {"tested_on": "MDR1-MDCK cell monolayers", "test": "Blood-brain-barrier (BBB) penetration potential via MDCK-MDR1 permeability assay"}, "[6]": {"tested_on": "MDR1", "test": "Blood-brain-barrier (BBB) penetration potential via MDCK-MDR1 permeability assay", "settings": "dog, MDCK-MDR1, pH 7.4, MDCK-MDR1: Efflux"}, "[7]": {"settings": "GM04724 Huntington's disease patient lymphoblasts"}, "[8]": {"settings": "Homo sapiens, Fibroblast, 24 h, SMA patient fibroblasts GM03813, 24 h, qPCR"}, "[9]": {"settings": "SMA patient fibroblasts GM03813, 48 hours, MSD"}, "[10]": {"settings": "GM04724 (CAG 70/20) Huntington's disease patient lymphoblasts"}, "[11]": {"settings": "Homo sapiens, Fibroblast, 24 h, SMA patient fibroblasts (GM03813), 24 h"}, "[12]": {"settings": "SMA patient fibroblasts (GM03813), 48 hours"}}, "note": "Read-outs that look alike come from different tables or passages of the source.", "data": [{"compound": "CN(c1ccc(-c2ccc(-n3cnc(C#N)c3)cc2O)nn1)[C@@H]1C[C@H]2CC[C@H](N2)[C@@H]1F", "note": "[Compound 69A, 1-(4-(6-(((1S,2S,3R,5R)-2-fluoro-8-azabicyclo[3.2.1]octan-3-yl)(methyl)amino)pyridazin-3-yl)-3-hydroxyphenyl)-1H-imidazole-4-carbonitrile]", "values": [{"measurement": "EC50", "setting": "[1]; [7]", "value": "101 to 500", "unit": "nM"}, {"measurement": "EC50", "setting": "[2]; [8]", "value": "51 to 100", "unit": "nM"}, {"measurement": "EC50", "setting": "[3]; [9]", "value": "16 to 50", "unit": "nM"}, {"measurement": "Papp A→B at 120 min, 5 μM", "setting": "[4]; A-B direction", "value": 1.36, "unit": "×10⁻⁶ cm/s"}, {"measurement": "Papp B→A at 120 min, 5 μM", "setting": "[4]; B-A direction", "value": 39.4, "unit": "×10⁻⁶ cm/s"}, {"measurement": "MDCK-MDR1: % Recov A-B", "setting": "[5]; A-B direction", "value": 87, "unit": "%"}, {"measurement": "MDCK-MDR1: % Recov B-A", "setting": "[5]; B-A direction", "value": 86, "unit": "%"}, {"measurement": "efflux ratio at 120 min, 5 μM", "setting": "[6]; efflux ratio", "value": 29}]}, {"compound": "Cc1cc(=O)c2cc(-c3ccc(N(C)[C@@H]4C[C@H]5CC[C@@H]([C@@H]4F)N5C)nn3)c(O)cc2o1", "note": "[Compound 100A, 6-(6-(((1S,2S,3R,5R)-2-fluoro-8-methyl-8-azabicyclo[3.2.1]octan-3-yl)(methyl)amino)pyridazin-3-yl)-7-hydroxy-2-methyl-4H-chromen-4-one]", "values": [{"measurement": "mHTT protein EC50", "setting": "[1]; [10]", "value": "E (501 ≤ E ≤ 10.000)"}, {"measurement": "EC50", "setting": "[2]; [11]", "value": "101 to 500", "unit": "nM"}, {"measurement": "EC50", "setting": "[3]; [12]", "value": "51 to 100", "unit": "nM"}, {"measurement": "Papp A→B at 120 min, 5 μM", "setting": "[4]; A-B", "value": 6.34, "unit": "×10⁻⁶ cm/s"}, {"measurement": "Papp B→A at 120 min, 5 μM", "setting": "[4]; B-A", "value": 40.7, "unit": "×10⁻⁶ cm/s"}, {"measurement": "MDCK-MDR1: % Recov A-B", "setting": "[5]; A-B", "value": 80, "unit": "%"}, {"measurement": "MDCK-MDR1: % Recov B-A", "setting": "[5]; B-A", "value": 102, "unit": "%"}, {"measurement": "efflux ratio at 120 min, 5 μM", "setting": "[6]", "value": 6}]}, {"compound": "CN(c1ccc(-c2cc3ncn(CC(F)(F)F)c(=O)c3cc2O)nn1)[C@@H]1C[C@H]2CCC[C@H](N2)[C@@H]1F", "note": "[Compound 58A, 7-(6-(((1S,2S,3R,5R)-2-fluoro-9-azabicyclo[3.3.1]nonan-3-yl)(methyl)amino)pyridazin-3-yl)-6-hydroxy-3-(2,2,2-trifluoroethyl)quinazolin-4(3H)-one]", "values": [{"measurement": "EC50", "setting": "[1]; [7]", "value": "101 to 500", "unit": "nM"}, {"measurement": "EC50", "setting": "[2]; [8]", "value": "101 to 500", "unit": "nM"}, {"measurement": "EC50", "setting": "[3]; [9]", "value": "0.01 to 15", "unit": "nM"}, {"measurement": "Papp A→B at 120 min, 5 μM", "setting": "[4]; A-B direction", "value": 0.36, "unit": "×10⁻⁶ cm/s"}, {"measurement": "Papp B→A at 120 min, 5 μM", "setting": "[4]; B-A direction", "value": 71.4, "unit": "×10⁻⁶ cm/s"}, {"measurement": "MDCK-MDR1: % Recov A-B", "setting": "[5]; A-B direction", "value": 86, "unit": "%"}, {"measurement": "MDCK-MDR1: % Recov B-A", "setting": "[5]; B-A direction", "value": 89, "unit": "%"}, {"measurement": "efflux ratio at 120 min, 5 μM", "setting": "[6]; efflux ratio", "value": 201}]}, {"compound": "CN(c1ccc(-c2ccc(-c3cnn(C(F)F)c3)cc2O)nn1)[C@@H]1C[C@H]2CCC[C@H](N2)[C@@H]1F", "note": "[Compound 21A, 5-(1-(difluoromethyl)-1H-pyrazol-4-yl)-2-(6-(((1S,2S,3R,5R)-2-fluoro-9-azabicyclo[3.3.1]nonan-3-yl)(methyl)amino)pyridazin-3-yl)phenol]", "values": [{"measurement": "EC50", "setting": "[1]; [7]", "value": "16 to 50", "unit": "nM"}, {"measurement": "EC50", "setting": "[2]; [8]", "value": "51 to 100", "unit": "nM"}, {"measurement": "EC50", "setting": "[3]; [9]", "value": "0.01 to 15", "unit": "nM"}, {"measurement": "Papp A→B at 120 min, 5 μM", "setting": "[4]; A-B direction", "value": 1.99, "unit": "×10⁻⁶ cm/s"}, {"measurement": "Papp B→A at 120 min, 5 μM", "setting": "[4]; B-A direction", "value": 19.3, "unit": "×10⁻⁶ cm/s"}, {"measurement": "MDCK-MDR1: % Recov A-B", "setting": "[5]; A-B direction", "value": 34, "unit": "%"}, {"measurement": "MDCK-MDR1: % Recov B-A", "setting": "[5]; B-A direction", "value": 71, "unit": "%"}, {"measurement": "efflux ratio at 120 min, 5 μM", "setting": "[6]; efflux ratio", "value": 10}]}, {"compound": "COc1cc(-c2ccc(-c3ccc(N(C)[C@H]4CC5N[C@@H](C4)CC5(F)F)nn3)c(O)c2)cnn1", "note": "(single isomer, unassigned) [Compound 2A]", "values": [{"measurement": "EC50", "setting": "[1]; [7]", "value": "16 to 50", "unit": "nM"}, {"measurement": "EC50", "setting": "[2]; SMA patient fibroblasts GM03813, 24 h, qPCR", "value": "16 to 50", "unit": "nM"}, {"measurement": "EC50", "setting": "[3]; [9]", "value": "16 to 50", "unit": "nM"}, {"measurement": "Papp A→B at 120 min, 5 μM", "setting": "[4]; A-B direction", "value": 11.3, "unit": "×10⁻⁶ cm/s"}, {"measurement": "Papp B→A at 120 min, 5 μM", "setting": "[4]; B-A direction", "value": 39, "unit": "×10⁻⁶ cm/s"}, {"measurement": "MDCK-MDR1: % Recov A-B", "setting": "[5]; A-B direction", "value": 54, "unit": "%"}, {"measurement": "MDCK-MDR1: % Recov B-A", "setting": "[5]; B-A direction", "value": 81, "unit": "%"}, {"measurement": "efflux ratio at 120 min, 5 μM", "setting": "[6]; efflux ratio", "value": 3}]}, {"compound": "CN(c1ccc(-c2cc3c(=O)n(C)cnc3cc2O)nn1)[C@H]1C[C@@H]2CC[C@H]([C@H]1F)N2C", "note": "[Compound 102B, 6-(6-(((1R,2R,3S,5S)-2-fluoro-8-methyl-8-azabicyclo[3.2.1]octan-3-yl)(methyl)amino)pyridazin-3-yl)-7-hydroxy-3-methylquinazolin-4(3H)-one]", "values": [{"measurement": "EC50", "setting": "[1]; [10]", "value": "51 to 100", "unit": "nM"}, {"measurement": "EC50", "setting": "[2]; [11]", "value": "101 to 500", "unit": "nM"}, {"measurement": "EC50", "setting": "[3]; [12]", "value": "16 to 50", "unit": "nM"}, {"measurement": "Papp A→B at 120 min, 5 μM", "setting": "[4]; A-B", "value": 1.63, "unit": "×10⁻⁶ cm/s"}, {"measurement": "Papp B→A at 120 min, 5 μM", "setting": "[4]; B-A", "value": 48.1, "unit": "×10⁻⁶ cm/s"}, {"measurement": "MDCK-MDR1: % Recov A-B", "setting": "[5]; A-B", "value": 91, "unit": "%"}, {"measurement": "MDCK-MDR1: % Recov B-A", "setting": "[5]; B-A", "value": 91, "unit": "%"}, {"measurement": "efflux ratio at 120 min, 5 μM", "setting": "[6]", "value": 30}]}, {"compound": "CN(c1ccc(-c2ccc(-c3cnn(C)c3)cc2O)nn1)[C@H]1C[C@@H]2CCC[C@@H](N2)[C@H]1F", "note": "[Compound 15B, 2-(6-(((1R,2R,3S,5S)-2-fluoro-9-azabicyclo[3.3.1]nonan-3-yl)(methyl)amino)pyridazin-3-yl)-5-(1-methyl-1H-pyrazol-4-yl)phenol]", "values": [{"measurement": "EC50", "setting": "[1]; [7]", "value": "0.01 to 15", "unit": "nM"}, {"measurement": "EC50", "setting": "[2]; [8]", "value": "0.01 to 15", "unit": "nM"}, {"measurement": "EC50", "setting": "[3]; [9]", "value": "0.01 to 15", "unit": "nM"}, {"measurement": "Papp A→B at 120 min, 5 μM", "setting": "[4]; A-B direction", "value": 3.21, "unit": "×10⁻⁶ cm/s"}, {"measurement": "Papp B→A at 120 min, 5 μM", "setting": "[4]; B-A direction", "value": 39.3, "unit": "×10⁻⁶ cm/s"}, {"measurement": "MDCK-MDR1: % Recov A-B", "setting": "[5]; A-B direction", "value": 62, "unit": "%"}, {"measurement": "MDCK-MDR1: % Recov B-A", "setting": "[5]; B-A direction", "value": 84, "unit": "%"}, {"measurement": "efflux ratio at 120 min, 5 μM", "setting": "[6]; efflux ratio", "value": 12}]}]}
